Read-outs that look alike come from different tables or passages of the source. Numbered stars: 1 amine (or outer) side, 2 acyl side, 3 side chain; on linkers, the order of the positions; unused ones are H or OH. Bridge positions count the residues as written; N and C are the ends. Side chains are listed from the residue outwards. Peptide text beside a SMILES is read from it. * marks the point of attachment. C20 diacid = O=C(O)CCCCCCCCCCCCCCCCCCC(=O)*; γGlu = O=C(O)[C@H](CCC(=O)[*:2])N[*:1]; AEEA = NCCOCCOCC(=O)O
What was measured:
[1] = biological target: T1, human calcitonin receptor (Homo sapiens, UniProt P30988); test: Assay (II)a functional assay, human calcitonin receptor (CRE luciferase, BHK cells);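 also: luminescence from a CRE-driven luciferase reporter, read by single photon counting after cells were exposed to test samples for 3 h at 37 °C under 5% CO2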; type: cell-based; details: read-out: hCTR funct. EC50
T1 construct: expressed in transfected cells
T1 sequence (P30988 25-474): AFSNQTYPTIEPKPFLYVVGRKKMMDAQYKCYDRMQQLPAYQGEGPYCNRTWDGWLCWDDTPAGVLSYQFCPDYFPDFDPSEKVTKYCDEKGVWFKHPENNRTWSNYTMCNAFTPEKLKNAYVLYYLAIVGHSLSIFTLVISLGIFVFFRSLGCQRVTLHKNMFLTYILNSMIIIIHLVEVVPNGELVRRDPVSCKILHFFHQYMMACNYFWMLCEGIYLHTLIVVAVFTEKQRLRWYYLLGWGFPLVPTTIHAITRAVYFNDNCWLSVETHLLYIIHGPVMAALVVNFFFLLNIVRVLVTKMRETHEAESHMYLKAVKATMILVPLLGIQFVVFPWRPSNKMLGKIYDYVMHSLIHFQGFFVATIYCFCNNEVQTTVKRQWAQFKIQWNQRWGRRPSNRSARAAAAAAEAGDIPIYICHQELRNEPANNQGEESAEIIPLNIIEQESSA

[2] = biological target: T2, human amylin receptor (Homo sapiens, UniProt O60896+P30988); test: Assay (V) binding to the human amylin receptor (SPA, 125I-rat amylin); details: human amylin receptor membranes, SPA; read-out: hAmylin-R bind IC50
T2 construct: expressed in transfected cells
T2 sequence (P30988 25-474): T1 sequence (P30988 25-474)
T2 sequence (O60896 24-148 partner): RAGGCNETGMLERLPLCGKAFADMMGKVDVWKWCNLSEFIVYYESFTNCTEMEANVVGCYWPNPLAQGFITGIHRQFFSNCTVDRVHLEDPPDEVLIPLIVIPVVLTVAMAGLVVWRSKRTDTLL
Method in brief: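 IC50, taken as receptor affinity, came from one-site binding competition analysis of scintillation proximity counts. Amylin 3(a)/CRE-luc cell membranes (35 ng/μL final) were mixed with SPA beads (0.05 mg/well) in 50 mM Hepes pH 7.4 containing CaCl2, MgCl2, 0.1% OA and 0.02% Tween20.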

[3] = biological target: T3, human amylin receptor (amylin 3(a) receptor: human calcitonin receptor + RAMP-3) (Homo sapiens, UniProt O60896+P30988); test: Assay (II)a functional assay, human amylin receptor (CRE luciferase, BHK cells); type: cell-based; details: for EC50: read-out: hAmylin-R funct. EC50
T3 construct: expressed in transfected cells
T3 sequence (P30988 25-474): T1 sequence (P30988 25-474)
T3 sequence (O60896 24-148 partner): T2 sequence (O60896 24-148 partner)

[4] = biological target: T1, human calcitonin receptor; test: Assay (VII) binding to the human calcitonin receptor (SPA, 125I-Calcitonin); details: read-out: hCTR bind IC50;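 also: cell membranes coupled to SPA beads, competitive displacement read by scintillation counting, IC50 derived from a one-site competition fit as a measure of receptor affinity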
[5] = Table 6, human functional selectivity (hCTR EC50 / hAmylin-R EC50)
[6] = Table 6a, human functional selectivity (hCTR EC50 / hAmylin-R EC50), at least 5
[7] = Table 6j, hCTR funct. EC50 / hAmylin-R funct. EC50
[8] = Table 6k, hCTR funct. EC50 / hAmylin-R funct. EC50
[9] = functional assay, human amylin receptor

Row | EC50 [1] [pM] | IC50 [2] [pM] | Ratio hCT/hAmylin funct. [3, 5] | Ratio hCT/hAmylin funct. [3, 6] | Ratio hCT/hAmylin funct. ([3]; Table 6i, hCTR funct. EC50 / hAmylin-R funct. EC50) | EC50 ([3]; Table 6i, human amylin receptor functional) [pM] | Ratio hCT/hAmylin funct. [3, 7] | Ratio hCT/hAmylin funct. [3, 8] | IC50 [4] [pM] | EC50 [3, 9] [pM] | SMILES
1 | 2680 | 549 | – | – | – | – | – | – | 17100 | 164 | CC[C@H](C)[C@H](NC(=O)[C@H](C)NC(=O)CNC(=O)[C@H](Cc1ccccc1)NC(=O)[C@H](CC(N)=O)NC(=O)[C@@H]1CCCN1C(=O)[C@H](CO)NC(=O)[C@H](CO)NC(=O)[C@H](Cc1c[nH]cn1)NC(=O)[C@H](CCCNC(=N)N)NC(=O)[C@H](CC(C)C)NC(=O)[C@H](Cc1ccccc1)NC(=O)[C@H](CC(N)=O)NC(=O)[C@H](C)NC(=O)[C@H](CC(C)C)NC(=O)[C@H](CCCNC(=N)N)NC(=O)[C@H](CCC(N)=O)NC(=O)[C@@H](NC(=O)[C@H](C)NC(=O)[C@@H]1CSSC[C@H](NC(=O)[C@H](CCCCN)NC(=O)CC[C@H](NC(=O)CCCCCCCCCCCCCCCCCCC(=O)O)C(=O)O)C(=O)N[C@@H](CC(N)=O)C(=O)N[C@@H]([C@@H](C)O)C(=O)N[C@@H](C)C(=O)N[C@@H]([C@@H](C)O)C(=O)N1)[C@@H](C)O)C(=O)N1CCC[C@H]1C(=O)N[C@@H](CO)C(=O)N[C@@H](CO)C(=O)N[C@H](C(=O)N[C@@H](CC(N)=O)C(=O)N[C@H](C(=O)NCC(=O)N[C@@H](Cc1c[nH]cn1)C(=O)N[C@@H](CC(N)=O)C(=O)N[C@H](C(=O)N[C@@H](Cc1ccc(O)cc1)C(N)=O)[C@@H](C)O)C(C)C)[C@@H](C)O [Example 40]
2 | 899 | 195 | – | – | – | – | – | – | 9530 | 88 | CC[C@H](C)[C@H](NC(=O)[C@H](C)NC(=O)CNC(=O)[C@H](Cc1ccccc1)NC(=O)[C@H](CC(N)=O)NC(=O)[C@@H]1CCCN1C(=O)[C@H](CO)NC(=O)[C@H](CO)NC(=O)[C@H](Cc1c[nH]cn1)NC(=O)[C@H](CCCNC(=N)N)NC(=O)[C@H](CC(C)C)NC(=O)[C@H](Cc1ccccc1)NC(=O)[C@H](CC(N)=O)NC(=O)[C@H](C)NC(=O)[C@H](CC(C)C)NC(=O)[C@H](CCCNC(=N)N)NC(=O)[C@H](CCC(N)=O)NC(=O)[C@@H](NC(=O)[C@H](C)NC(=O)[C@@H]1CSSC[C@H](NC(=O)[C@H](CCCNC(=N)N)NC(=O)CNC(=O)CC[C@H](NC(=O)CCCCCCCCCCCCCCCCCCC(=O)O)C(=O)O)C(=O)N[C@@H](CC(N)=O)C(=O)N[C@@H]([C@@H](C)O)C(=O)N[C@@H](C)C(=O)N[C@@H]([C@@H](C)O)C(=O)N1)[C@@H](C)O)C(=O)N1CCC[C@H]1C(=O)N[C@@H](CO)C(=O)N[C@@H](CO)C(=O)N[C@H](C(=O)N[C@@H](CC(N)=O)C(=O)N[C@H](C(=O)NCC(=O)N[C@@H](CO)C(=O)N[C@@H](CC(N)=O)C(=O)N[C@H](C(=O)N[C@@H](Cc1ccc(O)cc1)C(N)=O)[C@@H](C)O)C(C)C)[C@@H](C)O [Example 46] ({C20 diacid-γGlu}-GRCNTATCATQRLANFLRHSSPNFGAIPSSTNVGSNTY-NH2; disulfide 3-8)
3 | 1320 | 344 | 6.0 | 6.0 | – | – | 6.0 | 6.0 | 15500 | 222 | CC[C@H](C)[C@H](NC(=O)[C@H](C)NC(=O)CNC(=O)[C@H](Cc1ccccc1)NC(=O)[C@H](CC(N)=O)NC(=O)[C@@H]1CCCN1C(=O)[C@H](CO)NC(=O)[C@H](CO)NC(=O)[C@H](Cc1c[nH]cn1)NC(=O)[C@H](CCCNC(=N)N)NC(=O)[C@H](CC(C)C)NC(=O)[C@H](Cc1ccccc1)NC(=O)[C@H](CC(N)=O)NC(=O)[C@H](C)NC(=O)[C@H](CC(C)C)NC(=O)[C@H](CCCNC(=N)N)NC(=O)[C@H](CCC(N)=O)NC(=O)[C@@H](NC(=O)[C@H](C)NC(=O)[C@@H]1CSSC[C@H](NC(=O)[C@H](CCCNC(=N)N)NC(=O)CNC(=O)CC[C@H](NC(=O)CCCCCCCCCCCCCCCCCCC(=O)O)C(=O)O)C(=O)N[C@@H](CC(N)=O)C(=O)N[C@@H]([C@@H](C)O)C(=O)N[C@@H](C)C(=O)N[C@@H]([C@@H](C)O)C(=O)N1)[C@@H](C)O)C(=O)N1CCC[C@H]1C(=O)N[C@@H](CO)C(=O)N[C@@H](CO)C(=O)N[C@H](C(=O)N[C@@H](CC(N)=O)C(=O)N[C@H](C(=O)NCC(=O)N[C@@H](CO)C(=O)N[C@@H](Cc1c[nH]cn1)C(=O)N[C@H](C(=O)N[C@@H](Cc1ccc(O)cc1)C(N)=O)[C@@H](C)O)C(C)C)[C@@H](C)O [Example 47] ({C20 diacid-γGlu}-GRCNTATCATQRLANFLRHSSPNFGAIPSSTNVGSHTY-NH2; disulfide 3-8)

More lines, now with the values behind:

Row | SMILES | EC50 [1] [pM] | IC50 [2] [pM] | Ratio hCT/hAmylin funct. [3, 5] | Ratio hCT/hAmylin funct. [3, 6] | Ratio hCT/hAmylin funct. ([3]; Table 6i, hCTR funct. EC50 / hAmylin-R funct. EC50) | EC50 ([3]; Table 6i, human amylin receptor functional) [pM] | Ratio hCT/hAmylin funct. [3, 7] | Ratio hCT/hAmylin funct. [3, 8] | IC50 [4] [pM] | EC50 [3, 9] [pM]
4 | CC[C@H](C)[C@H](NC(=O)[C@H](C)NC(=O)CNC(=O)[C@H](Cc1ccccc1)NC(=O)[C@H](CC(N)=O)NC(=O)[C@@H]1CCCN1C(=O)[C@H](CO)NC(=O)[C@H](CO)NC(=O)[C@H](Cc1c[nH]cn1)NC(=O)[C@H](CCCNC(=N)N)NC(=O)[C@H](CC(C)C)NC(=O)[C@H](Cc1ccccc1)NC(=O)[C@H](CCC(=O)O)NC(=O)[C@H](C)NC(=O)[C@H](CC(C)C)NC(=O)[C@H](CCCNC(=N)N)NC(=O)[C@H](CCC(N)=O)NC(=O)[C@@H](NC(=O)[C@H](C)NC(=O)[C@@H]1CSSC[C@H](NC(=O)[C@H](CCCCN)NC(=O)CC[C@H](NC(=O)CCCCCCCCCCCCCCCCCCC(=O)O)C(=O)O)C(=O)N[C@@H](CC(N)=O)C(=O)N[C@@H]([C@@H](C)O)C(=O)N[C@@H](C)C(=O)N[C@@H]([C@@H](C)O)C(=O)N1)[C@@H](C)O)C(=O)N1CCC[C@H]1C(=O)N[C@@H](CO)C(=O)N[C@@H](CO)C(=O)N[C@H](C(=O)N[C@@H](CC(N)=O)C(=O)N[C@H](C(=O)NCC(=O)N[C@@H](CCCCN)C(=O)N[C@@H](CC(N)=O)C(=O)N[C@H](C(=O)N[C@@H](Cc1ccc(O)cc1)C(N)=O)[C@@H](C)O)C(C)C)[C@@H](C)O [Example 36] ({C20 diacid-γGlu}-KCNTATCATQRLAEFLRHSSPNFGAIPSSTNVGKNTY-NH2; disulfide 2-7) | 1280 | 403 | 6.8 | 6.8 | 6.8 | 189 | 6.8 | 6.8 | 6310 | –
5 | CC[C@H](C)[C@H](NC(=O)[C@H](C)NC(=O)CNC(=O)[C@H](Cc1ccccc1)NC(=O)[C@H](CC(N)=O)NC(=O)[C@@H]1CCCN1C(=O)[C@H](CO)NC(=O)[C@H](CO)NC(=O)[C@H](Cc1c[nH]cn1)NC(=O)[C@H](CCCNC(=N)N)NC(=O)[C@H](CC(C)C)NC(=O)[C@H](Cc1ccccc1)NC(=O)[C@H](CC(N)=O)NC(=O)[C@H](C)NC(=O)[C@H](CC(C)C)NC(=O)[C@H](CCCNC(=N)N)NC(=O)[C@H](CCC(N)=O)NC(=O)[C@@H](NC(=O)[C@H](C)NC(=O)[C@@H]1CSSC[C@H](NC(=O)[C@H](CCCNC(=N)N)NC(=O)[C@@H](N)CCCCNC(=O)COCCOCCNC(=O)CC[C@H](NC(=O)CCCCCCCCCCCCCCCCCCC(=O)O)C(=O)O)C(=O)N[C@@H](CC(N)=O)C(=O)N[C@@H]([C@@H](C)O)C(=O)N[C@@H](C)C(=O)N[C@@H]([C@@H](C)O)C(=O)N1)[C@@H](C)O)C(=O)N1CCC[C@H]1C(=O)N[C@@H](CO)C(=O)N[C@@H](CO)C(=O)N[C@H](C(=O)N[C@@H](CC(N)=O)C(=O)N[C@H](C(=O)NCC(=O)N[C@@H](CO)C(=O)N[C@@H](Cc1c[nH]cn1)C(=O)N[C@H](C(=O)N[C@@H](Cc1ccc(O)cc1)C(N)=O)[C@@H](C)O)C(C)C)[C@@H](C)O [Example 45] (H-K([AEEA-γGlu-C20 diacid])RCNTATCATQRLANFLRHSSPNFGAIPSSTNVGSHTY-NH2; disulfide 3-8) | 10100 | 552 | 17.0 | 17.0 | – | – | 17.0 | 17.0 | 14800 | 594

From patent publication US8575091B1, “Amylin analogues and pharmaceutical compositions thereof” (Novo Nordisk A/S, priority 2012, dated 2013)
